Test results taken from patent US8273754B2, “Substituted 1H-pyrazolo[3,4-D]pyrimidine-6-amine compounds” (ArQule, Inc., priority 2008, dated 2012).
pIC50: −log10 of the molar value. Like-named read-outs stand apart in the source and are kept apart here.

Key:
[1] = molecular target: T1, FGFR2 (N549H) (Homo sapiens, UniProt P21802, N549H); assay: fluorescent ELISA assay for inhibitors of FGFR2 kinase; assay type: biochemical; details: Pyk2 peptide substrate, 60 minutes
T1 construct: purchased Millipore 14-742
T1 sequence (P21802 22-821 N549H): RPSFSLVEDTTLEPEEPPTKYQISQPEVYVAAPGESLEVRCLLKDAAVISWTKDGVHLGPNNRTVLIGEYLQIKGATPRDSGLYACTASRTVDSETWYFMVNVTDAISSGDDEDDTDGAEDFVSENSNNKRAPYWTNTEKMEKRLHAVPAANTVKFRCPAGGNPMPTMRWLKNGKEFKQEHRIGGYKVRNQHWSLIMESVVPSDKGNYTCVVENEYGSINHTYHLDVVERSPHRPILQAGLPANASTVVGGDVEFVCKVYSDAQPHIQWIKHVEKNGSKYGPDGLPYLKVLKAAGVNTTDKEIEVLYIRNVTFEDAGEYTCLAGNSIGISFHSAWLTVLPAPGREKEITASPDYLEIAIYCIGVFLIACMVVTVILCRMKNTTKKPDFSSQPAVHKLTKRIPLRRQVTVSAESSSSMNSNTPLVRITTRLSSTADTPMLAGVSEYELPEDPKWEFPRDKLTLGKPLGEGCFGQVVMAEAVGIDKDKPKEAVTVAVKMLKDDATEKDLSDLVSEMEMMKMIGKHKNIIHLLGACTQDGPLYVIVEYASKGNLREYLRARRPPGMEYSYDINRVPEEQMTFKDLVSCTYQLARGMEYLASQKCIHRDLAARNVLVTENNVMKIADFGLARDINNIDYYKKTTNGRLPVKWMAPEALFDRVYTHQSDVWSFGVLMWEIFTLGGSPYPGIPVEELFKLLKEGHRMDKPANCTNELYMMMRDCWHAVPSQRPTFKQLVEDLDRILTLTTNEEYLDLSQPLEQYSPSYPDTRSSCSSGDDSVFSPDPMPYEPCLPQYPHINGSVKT
Experimental: The enzymatic assays described herein are conducted according to the following procedures from commercially available reagents. In one non-limiting example, a fluorescent ELISA assay is used to identify and characterize inhibitors of FGFR2 kinase as described herein. This heterogeneous assay utilizes a biotinylated peptide with a tyrosine motif as a substrate and an anti-phospho-tyrosine antibody to measure phosphorylation of the substrate. The reaction is initiated by adding the test compound, 37 μM Pyk2 substrate (Midwest Biotech, Cat. #MBT2383), 12.5 μM ATP (Roche, Cat. #11 140 965 001) and 0.5 μM FGFR2 enzyme (Millipore, Cat. #14-742) sequentially to a non-binding polypropylene V-well plate. All reagents are in an assay buffer consisting of: 50 mM Tris-HCL, 0.02 mg/ml BSA, 10 mM MgCl2, 0.1 mM Na3VO4, 1 mM EGTA, 75 μM ATP, 0.01% NP-40, 2 mM DTT and 10% glycerol. The reaction is incubated for 60 minutes. As the reaction proceeds, FGFR2 phosphorylates tyrosines in the peptide. The reaction mixture is then moved to a blocked streptavidin-coated Nunc Maxisorb plate (coated with 100 ng streptavidin from Pierce (Cat. #15-124) per well), allowing for the capture of the biotinylated peptide. Peptides are captured for 30 minutes at room temperature, the phosphorylation of peptides continues during this phase. The reaction is stopped by washing the streptavidin-coated plate 6 times with TBST. Phosphorylated peptide is detected by adding anti-phospho-tyrosine antibody (Cell Signaling, Cat. #9411, diluted 1:3000) to the streptavidin-coated plate. Unbound anti-phospho-tyrosine antibody is removed by washing the streptavidin-coated plate 6 times with TBST. Secondary detection is performed using alkaline phosphatase tagged goat anti-mouse antibody (Pierce, Cat. #31320, diluted 1:4000) for one hour. Unbound secondary antibody is removed by washing the streptavidin-coated plate 6 times with TBST. The fluorescent readout is initiated by adding to the streptavidin-coated plate Promega Attophos substrate (Promega, Cat. #S1000, dilution=6 mg/10 ml), which, when dephosphorylated by alkaline phosphatase, emits a fluorescent signal of 595 nm in wavelength when excited by a signal of 400 nm in wavelength. The reading of the 595 nm signal is done on the Perkin Elmer Envision system. Compounds which prevent FGFR2 from phosphorylating the peptide result in a lower fluorescent signal. The 595 nm fluorescent signal is directly proportional to the activity of FGFR2. Thus, the inhibition of FGFR2 by compounds is monitored by the decrease in the 595 nm fluorescent signal.

[2] = tested on: cancer cells; assay: MTS cell growth inhibition assay (72 hours); assay type: cell-based
Summary of the method: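 Cells in DMEM with 1% FBS, seeded 18 h, then compound-treated 72 h at 37 °C. Viability by MTS/PMS for 4 h, formazan absorbance at 492 nm; IC50 taken as concentration giving 50% absorbance drop, activity banded by percent inhibition.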

[3] = Homo sapiens, DLD-1, 72 h, DLD-1 cells, read-out: DLD-1 MTS 72 hr at 10 μM
[4] = Homo sapiens, KATO III, 72 h, KATO III cells, read-out: KATO III MTS 72 hr at 10 μM
[5] = Homo sapiens, MDA-MB-231, 72 h, MDA-MB-231 cells, read-out: MDA-MB-231 MTS 72 hr at 10 μM
[6] = Homo sapiens, NCI-H1299, 72 h, NCI-H1299 cells, read-out: NCI-H1299 MTS 72 hr at 10 μM
[7] = PaCa-2, 72 h, PACA-2 cells, read-out: PACA-2 MTS 72 hr at 10 μM

| pIC50 [1] | Compound | inhibition at 10 µM [2, 3] [%] | inhibition at 10 µM [2, 4] [%] | inhibition at 10 µM [2, 5] [%] | inhibition at 10 µM [2, 6] [%] | inhibition at 10 µM [2, 7] [%] |
| --- | --- | --- | --- | --- | --- | --- |
| 6.42 | Nc1nc(NC2Cc3ccccc3N(S(=O)(=O)c3ccccc3F)C2)c2cn[nH]c2n1 (stereo not drawn) [Compound 45, N4-(1-(2-fluorophenylsulfonyl)-1,2,3,4-tetrahydroquinolin-3-yl)-1H-pyrazolo[3,4-d]pyrimidine-4,6-diamine] | < 50 | < 50 | < 50 | < 50 | < 50 |
| < 4.52 | Cc1noc(C)c1S(=O)(=O)N1CC(Nc2nc(N)nc3[nH]ncc23)Cc2ccccc21 (stereo not drawn) [Compound 15, N4-(1-(3,5-dimethylisoxazol-4-ylsulfonyl)-1,2,3,4-tetrahydroquinolin-3-yl)-1H-pyrazolo[3,4-d]pyrimidine-4,6-diamine] | > 79 | > 79 | > 79 | > 79 | > 79 |
| 4.89 | Nc1nc(NC2Cc3ccccc3N(S(=O)(=O)c3c(F)cccc3F)C2)c2cn[nH]c2n1 (stereo not drawn) [Compound 58, N4-(1-(2,6-difluorophenylsulfonyl)-1,2,3,4-tetrahydroquinolin-3-yl)-1H-pyrazolo[3,4-d]pyrimidine-4,6-diamine] | < 50 | < 50 | < 50 | < 50 | < 50 |
| < 4.52 | CC(=O)Nc1ccc(S(=O)(=O)N2CC(Nc3nc(N)nc4[nH]ncc34)Cc3ccccc32)cc1 (stereo not drawn) [Compound 40, N-(4-(3-(6-amino-1H-pyrazolo[3,4-d]pyrimidin-4-ylamino)-3,4-dihydroquinolin-1(2H)-ylsulfonyl)phenyl)acetamide] | < 50 | < 50 | < 50 | < 50 | < 50 |
| 4.82 | Nc1nc(NC2Cc3ccccc3N(S(=O)(=O)c3cccc4nsnc34)C2)c2cn[nH]c2n1 (stereo not drawn) [Compound 17, N4-(1-(benzo[c][1,2,5]thiadiazol-4-ylsulfonyl)-1,2,3,4-tetrahydroquinolin-3-yl)-1H-pyrazolo[3,4-d]pyrimidine-4,6-diamine] | < 50 | < 50 | < 50 | < 50 | < 50 |
| 5.93 | Nc1nc(NC2Cc3ccccc3N(S(=O)(=O)c3cccc(C(F)(F)F)c3)C2)c2cn[nH]c2n1 (stereo not drawn) [Compound 19, N4-(1-(3-(trifluoromethyl)phenylsulfonyl)-1,2,3,4-tetrahydroquinolin-3-yl)-1H-pyrazolo[3,4-d]pyrimidine-4,6-diamine] | < 50 | < 50 | < 50 | < 50 | < 50 |
| < 4.52 | CC(C)c1ccc(S(=O)(=O)N2CC(Nc3nc(N)nc4[nH]ncc34)Cc3ccccc32)cc1 (stereo not drawn) [Compound 56, N4-(1-(4-isopropylphenylsulfonyl)-1,2,3,4-tetrahydroquinolin-3-yl)-1H-pyrazolo[3,4-d]pyrimidine-4,6-diamine] | < 50 | < 50 | < 50 | < 50 | < 50 |
| 4.76 | CC(=O)c1ccc(S(=O)(=O)N2CC(Nc3nc(N)nc4[nH]ncc34)Cc3ccccc32)cc1 (stereo not drawn) [Compound 48, 1-(4-(3-(6-amino-1H-pyrazolo[3,4-d]pyrimidin-4-ylamino)-3,4-dihydroquinolin-1(2H)-ylsulfonyl)phenyl)ethanone] | > 79 | 50 to 79 | > 79 | < 50 | > 79 |
| 4.79 | Cc1ccccc1CN1CC(Nc2nc(N)nc3[nH]ncc23)Cc2ccccc21 (stereo not drawn) [Compound 129, N4-[1-(2-methylbenzyl)-1,2,3,4-tetrahydroquinolin-3-yl]-1H-pyrazolo[3,4-d]pyrimidine-4,6-diamine] | < 50 | 50 to 79 | < 50 | < 50 | < 50 |
| 5.47 | Nc1nc(NC2Cc3ccccc3N(S(=O)(=O)c3cccc4ccccc34)C2)c2cn[nH]c2n1 (stereo not drawn) [Compound 31, N4-(1-(naphthalen-1-ylsulfonyl)-1,2,3,4-tetrahydroquinolin-3-yl)-1H-pyrazolo[3,4-d]pyrimidine-4,6-diamine] | < 50 | > 79 | < 50 | < 50 | < 50 |
| 5.65 | Nc1nc(NC2Cc3ccccc3N(Cc3cccc(F)c3)C2)c2cn[nH]c2n1 (stereo not drawn) [Compound 128, N4-[1-(3-fluorobenzyl)-1,2,3,4-tetrahydroquinolin-3-yl]-1H-pyrazolo[3,4-d]pyrimidine-4,6-diamine] | < 50 | 50 to 79 | < 50 | < 50 | 50 to 79 |
| 6.41 | Nc1nc(NC2Cc3ccccc3N(S(=O)(=O)c3ccc(F)cc3F)C2)c2cn[nH]c2n1 (stereo not drawn) [Compound 47, N4-(1-(2,4-difluorophenylsulfonyl)-1,2,3,4-tetrahydroquinolin-3-yl)-1H-pyrazolo[3,4-d]pyrimidine-4,6-diamine] | < 50 | < 50 | < 50 | < 50 | < 50 |
| < 6.52 | Nc1nc(NC2Cc3ccccc3N(S(=O)(=O)c3ccc(NC(=O)Nc4ccc(Cl)c(C(F)(F)F)c4)cc3)C2)c2cn[nH]c2n1 (stereo not drawn) [Compound 222, 1-(4-(3-(6-amino-1H-pyrazolo[3,4-d]pyrimidin-4-ylamino)-3,4-dihydroquinolin-1(2H)-ylsulfonyl)phenyl)-3-(4-chloro-3-(trifluromethyl)phenyl)urea] | > 79 | > 79 | > 79 | > 79 | > 79 |
| 6.47 | Nc1nc(NC2Cc3ccccc3N(S(=O)(=O)c3ccccc3)C2)c2cn[nH]c2n1 (stereo not drawn) [Compound 25, N4-(1-(phenylsulfonyl)-1,2,3,4-tetrahydroquinolin-3-yl)-1H-pyrazolo[3,4-d]pyrimidine-4,6-diamine] | < 50 | < 50 | < 50 | < 50 | < 50 |
| 5.59 | Nc1nc(NC2Cc3ccccc3N(S(=O)(=O)c3cccs3)C2)c2cn[nH]c2n1 (stereo not drawn) [Compound 23, N4-(1-(thiophen-2-ylsulfonyl)-1,2,3,4-tetrahydroquinolin-3-yl)-1H-pyrazolo[3,4-d]pyrimidine-4,6-diamine] | < 50 | < 50 | < 50 | < 50 | < 50 |
| 6.43 | Nc1nc(NC2Cc3ccccc3N(S(=O)(=O)c3cccc(F)c3)C2)c2cn[nH]c2n1 (stereo not drawn) [Compound 18, N4-(1-(3-fluorophenylsulfonyl)-1,2,3,4-tetrahydroquinolin-3-yl)-1H-pyrazolo[3,4-d]pyrimidine-4,6-diamine] | < 50 | < 50 | < 50 | < 50 | < 50 |
| 4.80 | COc1ccc(S(=O)(=O)N2CC(Nc3nc(N)nc4[nH]ncc34)Cc3ccccc32)cc1 (stereo not drawn) [Compound 42, N4-(1-(4-methoxyphenylsulfonyl)-1,2,3,4-tetrahydroquinolin-3-yl)-1H-pyrazolo[3,4-d]pyrimidine-4,6-diamine] | < 50 | 50 to 79 | < 50 | < 50 | < 50 |
